Measured values reported in ChEMBL document CHEMBL1136321, “Regioselective synthesis and cytotoxicities of camptothecin derivatives modified at the 7-, 10- and 20-positions” (Bioorg Med Chem Lett, 2003).

Columns and labels:
Format in all cases: functional, cell-based
A549 = assay: In vitro cytotoxicity against A549 (human lung cancer)
A2780 = assay: In vitro cytotoxicity against A2780 (human ovarian cancer)
Bel-7402 = assay: In vitro cytotoxicity against Bel7402 (human liver cancer); settings: Bel-7402, Liver
HCT-8 = assay: In vitro cytotoxicity against HCT-8 (human colon cancer)
KB VCR R = assay: In vitro cytotoxicity against KB/VCR (Vincristine-resistant cancer cell line); settings: Homo sapiens
KB = assay: In vitro cytotoxicity against KB (human epidermoid carcinoma of the nasopharynx)

Row | Structure (SMILES) | IC50 (A549) [µM] | IC50 (A2780) [µM] | IC50 (Bel-7402) [µM] | IC50 (HCT-8) [µM] | IC50 (KB VCR R) [µM] | IC50 (KB) [µM]
1 | CC[C@@]1(O)C(=O)OCc2c1cc1n(c2=O)Cc2c-1nc1ccccc1c2COC(=O)COc1ccc(F)cc1 | 0.057 | 0.008 | 0.009 | 0.008 | 0.049 | 0.007
2 | CC[C@@]1(OC(=O)COc2ccc(F)cc2)C(=O)OCc2c1cc1n(c2=O)Cc2c-1nc1ccccc1c2COC(=O)COc1ccc(F)cc1 | 0.293 | 0.058 | 0.026 | 0.052 | > 1 | 0.072
3 | CC[C@@]1(OC(=O)COc2ccc(C#N)c(F)c2)C(=O)OCc2c1cc1n(c2=O)Cc2c-1nc1ccccc1c2COC(=O)COc1ccc(C#N)c(F)c1 | 0.055 | 0.01 | 0.033 | 0.048 | 0.053 | 0.009
4 | CC[C@@]1(OC(=O)COc2ccc(OC)cc2)C(=O)OCc2c1cc1n(c2=O)Cc2c-1nc1ccccc1c2COC(=O)COc1ccc(OC)cc1 | 0.348 | 0.071 | 0.084 | 0.076 | 0.267 | 0.31
5 | CC[C@@]1(OC(=O)COc2ccc(F)cc2)C(=O)OCc2c1cc1n(c2=O)Cc2cc3cc(OC(=O)COc4ccc(F)cc4)ccc3nc2-1 | 0.401 | 0.015 | 0.095 | 0.082 | 0.295 | 0.055
6 | CC[C@@]1(OC(=O)COc2ccc(OC)cc2)C(=O)OCc2c1cc1n(c2=O)Cc2cc3cc(OC(=O)COc4ccc(OC)cc4)ccc3nc2-1 | 0.718 | 0.088 | 0.2 | 0.097 | 0.46 | 0.069
7 | CC[C@@]1(O)C(=O)OCc2c1cc1n(c2=O)Cc2c-1nc1ccccc1c2COC(=O)Cc1cc(OC)c(OC)c(OC)c1 | 0.16 | 0.061 | 0.072 | 0.055 | 0.34 | 0.036
8 | CC[C@@]1(O)C(=O)OCc2c1cc1n(c2=O)Cc2cc3cc(OC(=O)COc4ccc(F)cc4)ccc3nc2-1 | 0.08 | 0.054 | 0.095 | 0.062 | 0.244 | 0.053
9 | CC[C@@]1(OC(=O)Cc2cc(OC)c(OC)c(OC)c2)C(=O)OCc2c1cc1n(c2=O)Cc2c-1nc1ccccc1c2COC(=O)Cc1cc(OC)c(OC)c(OC)c1 | 0.098 | 0.068 | 0.082 | 0.076 | 0.947 | 0.078
10 | CC[C@@]1(O)C(=O)OCc2c1cc1n(c2=O)Cc2c-1nc1ccccc1c2COC(=O)COc1ccc(OC)cc1 | 0.069 | 0.009 | 0.008 | 0.009 | 0.051 | 0.008
11 | CC[C@@]1(O)C(=O)OCc2c1cc1n(c2=O)Cc2cc3cc(OC(=O)COc4ccc(OC)cc4)ccc3nc2-1 | 0.19 | 0.065 | 0.074 | 0.061 | 0.275 | 0.047
12 | CC[C@@]1(O)C(=O)OCc2c1cc1n(c2=O)Cc2c-1nc1ccccc1c2COC(=O)COc1ccc(C#N)c(F)c1 | 0.008 | < 0.001 | < 0.001 | < 0.001 | 0.437 | < 0.001
13 | CC[C@@]1(O)C(=O)OCc2c1cc1n(c2=O)Cc2cc3ccccc3nc2-1 [CAMPTOTHECIN] | 0.008 | 0.007 | 0.007 | 0.007 | 0.009 | 0.009
14 | CC[C@@]1(O)C(=O)OCc2c1cc1n(c2=O)Cc2cc3c(CN(C)C)c(O)ccc3nc2-1 [TOPOTECAN] | 0.087 | 0.058 | 0.078 | 0.074 | 0.339 | –
